{
  "source": "patent US20200305483A1",
  "about": "“SOURNESS ENHANCERS COMPRISING A CYCLOHEXANECARBOXYLIC ACID” (Firmenich SA, priority 2017, published 2020)",
  "format_in_all_cases": "in vivo",
  "key": {"[1]": {"experiment": "Sensory evaluation of sweet, sour and astringent intensities, model system comprising malic acid", "experimental": "A sucrose (5% by weight) and malic acid (0.05% by weight) solution was prepared and used for evaluating the sourness enhancement effect of a cyclohexanecarboxylic acid having the structure: The evaluation consisted of (i) a test solution of 50 ppm of the cyclohexanecarboxylic acid in the sucrose/malic acid solution; and (ii) a control solution comprising the sucrose/malic acid solution only. 27 trained panelists were asked to evaluate the sweet, sour and astringent intensities for each sample on a linear scale from 0 to 10, where 0 corresponded to “no taste” and 10 corresponded to “too strong to taste”."}, "[2]": {"experiment": "Paired comparison study (2-AFC) of sourness, model system comprising malic acid", "conditions": "50 ppm in 5% sucrose / 0.05% malic acid, pH 3.1 (±0.02), 95% confidence level", "experimental": "A sucrose (5% by weight) and malic acid (0.05% by weight) solution was prepared and used for evaluating the sourness enhancement effect of a cyclohexanecarboxylic acid having the structure: The evaluation consisted of (i) a test solution of 50 ppm of the cyclohexanecarboxylic acid in the sucrose/malic acid solution; and (ii) a control solution comprising the sucrose/malic acid solution only. In a repeat experiment using 41 trained subjects, 41 subjects were asked to select the more sour sample in each pair, in a paired comparison study (2-AFC). The pH of the samples was 3.1 (±0.02). 28 out of 41 subjects found the sample containing compound I at 50 ppm was more sour at a 95% confidence level."}, "[3]": {"experiment": "Paired comparison of sourness, model system comprising tartaric acid", "conditions": "50 ppm in 5% sucrose / 0.05% tartaric acid, pH 2.9 (±0.02), 95% confidence level", "experimental": "A sucrose (5% by weight) and tartaric acid (0.05% by weight) solution was prepared and used for evaluating the sourness enhancement effect of a cyclohexanecarboxylic acid having the structure: The evaluation consisted of (i) a test solution of 50 ppm of the cyclohexanecarboxylic acid in the sucrose/tartaric acid solution; and (ii) a control solution comprising the sucrose/tartaric acid solution only. 41 subjects were asked to select out more sour sample in each pair. The pH of the samples was 2.9 (±0.02)."}, "[4]": {"experiment": "Paired comparison of sourness, model system comprising citric and lactic acid", "conditions": "50 ppm in 5% sucrose / 0.07% citric acid / 0.09% lactic acid, pH 2.9 (±0.02), 95% confidence level", "experimental": "A sucrose (5% by weight), citric acid (0.07% by weight), and lactic acid (0.09% by weight) solution was prepared and used for evaluating the sourness enhancement effect of a cyclohexanecarboxylic acid having the structure: The evaluation consisted of (i) a test solution of 50 ppm of the cyclohexanecarboxylic acid in the sucrose/citric-lactic acid solution; and (ii) a control solution comprising the sucrose/citric-lactic acid solution only. 41 subjects were asked to select out more sour sample in each pair. The pH of the samples was 2.9 (±0.02)."}, "[5]": {"experiment": "Sensory evaluation of sweet, sour and astringent intensities, model system comprising citric acid", "experimental": "A sucrose (5% by weight), and citric acid (0.05% by weight) solution was prepared and used for evaluating the sourness enhancement effect of a cyclohexanecarboxylic acid having the structure: The evaluation consisted of (i) a test solution of 50 ppm of the cyclohexanecarboxylic acid in the sucrose/citric acid solution; and (ii) a control solution comprising the sucrose/citric acid solution only. 28 trained panelists were asked to evaluate the sweet, sour and astringent intensities for each sample on a linear scale from 0 to 10, where 0 correlated with “no taste” and 10 correlated with “too strong to taste”."}, "[6]": {"conditions": "50 ppm (by weight) in sucrose/malic acid solution, versus reference sample"}, "[7]": {"conditions": "50 ppm (by weight) in sucrose/citric acid solution, versus reference sample"}},
  "data": [
    {"smiles": "O=C(/C=C/c1ccc(O)c(O)c1)O[C@@H]1C[C@](O)(C(=O)O)C[C@@H](O)[C@H]1O", "note": "[compound I]", "values": [
      {"measurement": "enhancement of astringency intensity", "setting": "[1]; [6]", "value": 24.0, "unit": "%"},
      {"measurement": "enhancement of sourness intensity", "setting": "[1]; [6]", "value": 22.5, "unit": "%"},
      {"measurement": "sourness intensity (tested sample)", "setting": "[1]; 50 ppm in 5% sucrose / 0.05% malic acid, 27 trained panelists, linear scale 0 to 10, reference sample 4.0, 95% confidence level", "value": 4.9},
      {"measurement": "astringency intensity (tested sample)", "setting": "[1]; 50 ppm in 5% sucrose / 0.05% malic acid, 27 trained panelists, scale 0 to 10, reference sample 2.5, 99% confidence level", "value": 3.1},
      {"measurement": "sweet intensity, change versus reference sample", "setting": "[1]; 50 ppm in 5% sucrose / 0.05% malic acid, pH value also unchanged", "value": "Without changing"},
      {"measurement": "subjects who found the sample containing the compound more sour", "setting": "[2]", "value": "28 out of 41 subjects"},
      {"measurement": "subjects who found that adding the compound increased sourness", "setting": "[3]", "value": "28 out of 41 subjects"},
      {"measurement": "subjects who found that adding the compound increased sourness", "setting": "[4]", "value": "29 out of 41 subjects"},
      {"measurement": "change of astringency intensity", "setting": "[5]; [7]", "value": 28.0, "unit": "%"},
      {"measurement": "decrease of sweetness intensity", "setting": "[5]; [7]", "value": 11.6, "unit": "%"},
      {"measurement": "astringency intensity (tested sample)", "setting": "[5]; 50 ppm in 5% sucrose / 0.05% citric acid, 28 trained panelists, scale 0 to 10, reference sample 2.5", "value": 3.2},
      {"measurement": "sweetness intensity (tested sample)", "setting": "[5]; 50 ppm in 5% sucrose / 0.05% citric acid, 28 trained panelists, scale 0 to 10, reference sample 4.3, 95% confidence level", "value": 3.8},
      {"measurement": "sourness intensity, change versus reference sample", "setting": "[5]; 50 ppm in 5% sucrose / 0.05% citric acid, pH value also unchanged", "value": "Without changing"}
    ]}
  ]
}
